The text below walks through data of ChEMBL document CHEMBL3352790, “Small molecule ghrelin receptor inverse agonists and antagonists” (J Med Chem, 2014).

Series [1] concerns the target T1, Growth hormone secretagogue receptor type 1 (Homo sapiens, UniProt Q92847). Nature of the series: Binding affinity to human ghrelin receptor by receptor binding assay.
Series [2] in a line: Oral bioavailability in rat. The format is ADME, organism-based. The conditions noted are these: in vivo.
The species named for series [3] is Mus musculus. Nature of the series: Reduction in fat content in mouse. The format is functional. Details: scale not given: the % may be the effect or the level left.
Series [4] addresses T1, Growth hormone secretagogue receptor type 1. Nature of the series: Antagonist activity against human ghrelin receptor by FLIPR assay.
Series [5] can be described thus: Unbound fraction rat brain. Format: ADME, tissue-based.
Series [6] deals with Mus musculus. Nature of the series: Reduction in food intake in C57BL/6J mouse at 30 mg/kg, ip after 2 hrs. The format is functional. The note with it: route intraperitoneal.

T1 sequence (Q92847 whole entry): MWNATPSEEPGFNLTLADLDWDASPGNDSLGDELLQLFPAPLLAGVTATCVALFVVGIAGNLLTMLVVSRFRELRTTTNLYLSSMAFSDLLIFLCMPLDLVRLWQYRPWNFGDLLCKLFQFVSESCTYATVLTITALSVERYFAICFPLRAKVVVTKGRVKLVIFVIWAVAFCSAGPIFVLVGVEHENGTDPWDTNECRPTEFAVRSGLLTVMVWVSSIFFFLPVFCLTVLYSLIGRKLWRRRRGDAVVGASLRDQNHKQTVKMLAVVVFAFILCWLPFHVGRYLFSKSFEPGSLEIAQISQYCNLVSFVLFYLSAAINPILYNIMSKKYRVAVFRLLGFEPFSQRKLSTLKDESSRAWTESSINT

Consider `CCN(CC)CCCS(=O)(=O)N[C@H](CCc1ccccc1)c1nc(-c2ccc(OC)cc2)n[nH]1`, for which the Ki in series [1] was found to be 15 nM. This molecule also registered a bioavailability in series [2] of 63%. The molecule further displayed an Activity in the series filed under Mus musculus [3] of 50%. The molecule `CN1CCN([C@@H](C(=O)NNc2cc(C(F)(F)F)cc(C(F)(F)F)c2)c2ccccc2Cl)CC1` gave an IC50 in series [4] of 6.31 nM. The same molecule returned a Fu in series [5] of 0.2%.

With `O=C(NNc1cc(C(F)(F)F)cc(C(F)(F)F)c1)[C@@H](c1cccnc1)N1CCN2CCC[C@@H]2C1`, in series [4], the IC50 is 3.98 nM. `CC(NC(=O)N(Cc1ccccc1Cl)C1CCN(C)CC1)c1cccc(Cl)c1Cl` (configuration not stated) came in with an inhibition in vivo at 30 mg/kg in the series on Mus musculus [6] of 70%.

By Ki is commonly meant a measure of affinity in units of concentration, obtained from inhibition or displacement. What is called bioavailability is the share of a dose that reaches the circulation, judged against a reference dose that is usually intravenous. The IC50 is the concentration needed to halve the response being measured. In general, inhibition in vivo refers to the drop in the measured response relative to a control, in per cent.
